Where two headings read alike, the source gives them in different places.
Legend:
[1] = female SD rats, cited from earlier work
[2] = In vivo biodistribution in female Kunming mice; conditions: for Biodistribution: Large Intestine / Biodistribution: Small Intestine / Biodistribution: Stomach: unit % ID
Procedure: Female Kunming mice (20-22 g, n=3) were fasted for 12 h before the experiment, and the purified radioactive ^99mTc complex 130 was dissolved in a normal saline (containing 10% ethanol) solution (about 100 μCi/mL). Female Kunming mice were injected with 100 μL of the above solution through the tail vein, and the mice were killed by cervical dislocation at 5, 15, 30, 60, and 120 min post-injection, respectively. Blood, brain, heart, liver, spleen, lung, kidney, muscle, bone, large intestine, small intestine, stomach and tail were collected, weighed and counted, and the count distribution of each tissue and organ was calculated (unit: % ID/g, the unit of large intestine, small intestine and stomach was % ID), and the data were the mean±standard deviation of three mice in each time phase. At the same time, 100 μL of the above solution was diluted to 10 mL, which was used as the % ID without deducting the tail count.
The corresponding radioactive ^99mTc complex 158 as the typical compounds of the general formula V in this application was selected to conduct an in vivo biodistribution study in female Kunming mice. The specific experimental method was shown in the experimental method of “In vivo biodistribution study of radioactive ^99mTc complex 130 in female Kunming mice” in Example 7 above.

[3] = 30 min after injection, reference 3
[4] = 30 min post-injection, reference 2
[5] = 60 min after injection, reference 2
[6] = 60 min after injection, reference 3
[7] = 60 min post-injection, reference 1
[8] = 60 min post-injection, reference 2
[9] = 120 min after injection, reference 3
[10] = 120 min post-injection, reference 1

For `[99Tc].[C-]#[N+]CC(C)(C)OC.[C-]#[N+]CC(C)(C)OC.[C-]#[N+]CC(C)(C)OC.[C-]#[N+]CC(C)(C)OC.[C-]#[N+]CC(C)(C)OC.[C-]#[N+]CC(C)(C)OC` [^99mTc-MIBI], the “absolute myocardial uptake value” ([1]; 10 min after injection, reference 2) is given as 3.26±0.18 % ID/g, the “absolute myocardial uptake value” ([1]; 10 min post-injection, reference 1) is given as 3.70 % Dose/g and the “absolute myocardial uptake value” ([1]; 20 min after injection, reference 2) is given as 3.07 0.21 % ID/g. For the same compound, the “absolute myocardial uptake value” ([1]; 30 min after injection, reference 2) was 3.13±0.12 % ID/g, the Heart-to-Blood ratio [1, 3] was 114.6±34.70 and the “absolute myocardial uptake value” [1, 3] was 3.16±0.56 % ID/g. The “absolute myocardial uptake value” ([1]; 30 min post-injection, reference 1) was 3.16 % Dose/g, the Heart-to-Blood ratio [1, 4] was 104.30 and the Heart-to-Lungs ratio [1, 4] was 4.66±0.24. The Heart-to-Lungs ratio ([1]; 30 min post-injection, reference 3) was 3.57±0.72, the Heart-to-Liver ratio [1, 5] was 2.65±0.22 and the “absolute myocardial uptake value” [1, 5] was 3.29±0.12 % ID/g. The Heart-to-Blood ratio [1, 6] was 137.80±35.00, the Heart-to-Liver ratio [1, 6] was 4.25±0.84 and the “absolute myocardial uptake value” [1, 6] was 3.14±0.42 % ID/g. For the same compound, the Heart-to-Liver ratio [1, 7] was 2.04±0.17, the Heart-to-Lungs ratio [1, 7] was 6.77±0.55 and the “absolute myocardial uptake value” [1, 7] was 3.04 % Dose/g. The Heart-to-Blood ratio [1, 8] was 164.50, the Heart-to-Lungs ratio [1, 8] was 7.32±0.28 and the Heart-to-Lungs ratio ([1]; 60 min post-injection, reference 3) was 6.41±1.25. For the same compound, the Heart-to-Blood ratio [1, 9] was 209.00±12.40, the Heart-to-Liver ratio [1, 9] was 4.52±1.57 and the “absolute myocardial uptake value” [1, 9] was 2.83±0.25 % ID/g. The Heart-to-Liver ratio [1, 10] was 2.96±0.34, the Heart-to-Lungs ratio [1, 10] was 6.48±0.51 and the Heart-to-Lungs ratio ([1]; 120 min post-injection, reference 3) was 7.97±1.89.

With `COC(C)(C)C[N+]#[C][99Tc-5]([C]#[N+]CC(C)(C)OC)([C]#[N+]CC(C)(C)OC)([C]#[N+]CC(C)(C)OC)([C]#[N+]CC(C)(C)OC)[C]#[N+]CC(C)(C)OCCCS(=O)(=O)CCCCCSCCCCC(=O)O` [^99mTc complex 130] the “Biodistribution: Blood” value ([2]; 5 min post-injection) was 0.54 ± 0.07 ID %/g, the “Biodistribution: Bone” value ([2]; 5 min post-injection) was 0.54 ± 0.10 ID %/g and the “Biodistribution: Brain” value ([2]; 5 min post-injection) was 0.04 ± 0.00 ID %/g. For the same compound, the “Biodistribution: Heart” value ([2]; 5 min post-injection) was 2.14 ± 0.25 ID %/g, the “Biodistribution: Kidney” value ([2]; 5 min post-injection) was 9.64 ± 0.08 ID %/g and the “Biodistribution: Liver” value ([2]; 5 min post-injection) was 53.13 ± 4.86 ID %/g. For the same compound, the “Biodistribution: Lungs” value ([2]; 5 min post-injection) was 0.84 ± 0.09 ID %/g, the “Biodistribution: Muscle” value ([2]; 5 min post-injection) was 0.75 ± 0.06 ID %/g and the “Biodistribution: Spleen” value ([2]; 5 min post-injection) was 0.67 ± 0.04 ID %/g. The Heart-to-Blood ratio ([2]; 5 min post-injection) was 3.96, the Heart-to-Liver ratio ([2]; 5 min post-injection) was 0.04 and the Heart-to-Lungs ratio ([2]; 5 min post-injection) was 2.55. The Heart-to-Muscle ratio ([2]; 5 min post-injection) was 2.85, the “Biodistribution: Large Intestine” value ([2]; 5 min post-injection) was 0.53 ± 0.10 % ID and the “Biodistribution: Small Intestine” value ([2]; 5 min post-injection) was 4.32 ± 0.25 % ID. For the same compound, the “Biodistribution: Stomach” value ([2]; 5 min post-injection) was 0.17 ± 0.02 % ID, the “Biodistribution: Blood” value ([2]; 15 min post-injection) was 0.24 ± 0.01 ID %/g and the “Biodistribution: Bone” value ([2]; 15 min post-injection) was 0.76 ± 0.13 ID %/g. The “Biodistribution: Brain” value ([2]; 15 min post-injection) was 0.03 ± 0.01 ID %/g, the “Biodistribution: Heart” value ([2]; 15 min post-injection) was 1.92 ± 0.18 ID %/g and the “Biodistribution: Kidney” value ([2]; 15 min post-injection) was 7.89 ± 0.19 ID %/g. For the same compound, the “Biodistribution: Liver” value ([2]; 15 min post-injection) was 42.04 ± 2.91 ID %/g, the “Biodistribution: Lungs” value ([2]; 15 min post-injection) was 0.76 ± 0.03 ID %/g and the “Biodistribution: Muscle” value ([2]; 15 min post-injection) was 0.67 ± 0.07 ID %/g. The “Biodistribution: Spleen” value ([2]; 15 min post-injection) was 0.50 ± 0.03 ID %/g, the Heart-to-Blood ratio ([2]; 15 min post-injection) was 8.00 and the Heart-to-Liver ratio ([2]; 15 min post-injection) was 0.05. For the same compound, the Heart-to-Lungs ratio ([2]; 15 min post-injection) was 2.53, the Heart-to-Muscle ratio ([2]; 15 min post-injection) was 2.87 and the “Biodistribution: Large Intestine” value ([2]; 15 min post-injection) was 0.82 ± 0.34 % ID. For the same compound, the “Biodistribution: Small Intestine” value ([2]; 15 min post-injection) was 20.74 ± 0.83 % ID, the “Biodistribution: Stomach” value ([2]; 15 min post-injection) was 0.26 ± 0.01 % ID and the “Biodistribution: Blood” value ([2]; 30 min post-injection) was 0.12 ± 0.04 ID %/g. For the same compound, the “Biodistribution: Bone” value ([2]; 30 min post-injection) was 0.33 ± 0.12 ID %/g, the “Biodistribution: Brain” value ([2]; 30 min post-injection) was 0.02 ± 0.01 ID %/g and the “Biodistribution: Heart” value ([2]; 30 min post-injection) was 1.54 ± 0.38 ID %/g. The “Biodistribution: Kidney” value ([2]; 30 min post-injection) was 2.51 ± 0.58 ID %/g, the “Biodistribution: Liver” value ([2]; 30 min post-injection) was 18.08 ± 0.30 ID %/g and the “Biodistribution: Lungs” value ([2]; 30 min post-injection) was 0.28 ± 0.05 ID %/g. The “Biodistribution: Muscle” value ([2]; 30 min post-injection) was 0.59 ± 0.16 ID %/g, the “Biodistribution: Spleen” value ([2]; 30 min post-injection) was 0.31 ± 0.05 ID %/g and the Heart-to-Blood ratio ([2]; 30 min post-injection) was 12.83. For the same compound, the Heart-to-Liver ratio ([2]; 30 min post-injection) was 0.09, the Heart-to-Lungs ratio ([2]; 30 min post-injection) was 5.50 and the Heart-to-Muscle ratio ([2]; 30 min post-injection) was 2.61. The “Biodistribution: Large Intestine” value ([2]; 30 min post-injection) was 1.56 ± 0.16 % ID, the “Biodistribution: Small Intestine” value ([2]; 30 min post-injection) was 29.63 ± 3.26 % ID and the “Biodistribution: Stomach” value ([2]; 30 min post-injection) was 0.12 ± 0.04 % ID. The “Biodistribution: Blood” value ([2]; 60 min post-injection) was 0.08 ± 0.01 ID %/g, the “Biodistribution: Bone” value ([2]; 60 min post-injection) was 0.15 ± 0.03 ID %/g and the “Biodistribution: Brain” value ([2]; 60 min post-injection) was 0.02 ± 0.00 ID %/g. The “Biodistribution: Heart” value ([2]; 60 min post-injection) was 1.37 ± 0.26 ID %/g, the “Biodistribution: Kidney” value ([2]; 60 min post-injection) was 1.20 ± 0.10 ID %/g and the “Biodistribution: Liver” value ([2]; 60 min post-injection) was 15.12 ± 1.7 ID %/g. The “Biodistribution: Lungs” value ([2]; 60 min post-injection) was 0.19 ± 0.01 ID %/g, the “Biodistribution: Muscle” value ([2]; 60 min post-injection) was 0.43 ± 0.09 ID %/g and the “Biodistribution: Spleen” value ([2]; 60 min post-injection) was 0.14 ± 0.03 ID %/g. For the same compound, the Heart-to-Blood ratio ([2]; 60 min post-injection) was 17.13, the Heart-to-Liver ratio ([2]; 60 min post-injection) was 0.09 and the Heart-to-Lungs ratio ([2]; 60 min post-injection) was 7.21. For the same compound, the Heart-to-Muscle ratio ([2]; 60 min post-injection) was 3.19, the “Biodistribution: Large Intestine” value ([2]; 60 min post-injection) was 16.13 ± 5.3 % ID and the “Biodistribution: Small Intestine” value ([2]; 60 min post-injection) was 26.18 ± 3.9 % ID. For the same compound, the “Biodistribution: Stomach” value ([2]; 60 min post-injection) was 0.29 ± 0.05 % ID, the “Biodistribution: Blood” value ([2]; 120 min post-injection) was 0.04 ± 0.01 ID %/g and the “Biodistribution: Bone” value ([2]; 120 min post-injection) was 0.09 ± 0.01 ID %/g. For the same compound, the “Biodistribution: Brain” value ([2]; 120 min post-injection) was 0.02 ± 0.01 ID %/g, the “Biodistribution: Heart” value ([2]; 120 min post-injection) was 1.27 ± 0.03 ID %/g and the “Biodistribution: Kidney” value ([2]; 120 min post-injection) was 0.30 ± 0.04 ID %/g. For the same compound, the “Biodistribution: Liver” value ([2]; 120 min post-injection) was 3.74 ± 0.98 ID %/g, the “Biodistribution: Lungs” value ([2]; 120 min post-injection) was 0.19 ± 0.05 ID %/g and the “Biodistribution: Muscle” value ([2]; 120 min post-injection) was 0.38 ± 0.10 ID %/g. The “Biodistribution: Spleen” value ([2]; 120 min post-injection) was 0.13 ± 0.02 ID %/g, the Heart-to-Blood ratio ([2]; 120 min post-injection) was 31.75 and the Heart-to-Liver ratio ([2]; 120 min post-injection) was 0.34. For the same compound, the Heart-to-Lungs ratio ([2]; 120 min post-injection) was 6.68, the Heart-to-Muscle ratio ([2]; 120 min post-injection) was 3.34 and the “Biodistribution: Large Intestine” value ([2]; 120 min post-injection) was 34.11 ± 4.52 % ID. The “Biodistribution: Small Intestine” value ([2]; 120 min post-injection) was 7.50 ± 2.45 % ID, the “Biodistribution: Stomach” value ([2]; 120 min post-injection) was 0.17 ± 0.12 % ID and the “absolute myocardial uptake (assessment)” value ([2]; after tail vein injection) was “relatively low”.
